Test results from patent publication US20210179600A1, “OXAZOLE AND THIAZOLE DERIVATIVES AS INHIBITORS OF ASK1” (Hepagene Therapeutics (HK) Limited, priority 2017, published 2021).

The compounds below were run against T1, Recombinant human ASK1 kinase (Homo sapiens, UniProt Q99683) (assay: ASK1 kinase HTRF assay (KinEASE-STK)). Details: HTRF detection; 3 nM ASK1 kinase, 1 uM STK-substrate-biotin.
T1 construct: purchased Invitrogen Inc
T1 sequence (Q99683 1-1374): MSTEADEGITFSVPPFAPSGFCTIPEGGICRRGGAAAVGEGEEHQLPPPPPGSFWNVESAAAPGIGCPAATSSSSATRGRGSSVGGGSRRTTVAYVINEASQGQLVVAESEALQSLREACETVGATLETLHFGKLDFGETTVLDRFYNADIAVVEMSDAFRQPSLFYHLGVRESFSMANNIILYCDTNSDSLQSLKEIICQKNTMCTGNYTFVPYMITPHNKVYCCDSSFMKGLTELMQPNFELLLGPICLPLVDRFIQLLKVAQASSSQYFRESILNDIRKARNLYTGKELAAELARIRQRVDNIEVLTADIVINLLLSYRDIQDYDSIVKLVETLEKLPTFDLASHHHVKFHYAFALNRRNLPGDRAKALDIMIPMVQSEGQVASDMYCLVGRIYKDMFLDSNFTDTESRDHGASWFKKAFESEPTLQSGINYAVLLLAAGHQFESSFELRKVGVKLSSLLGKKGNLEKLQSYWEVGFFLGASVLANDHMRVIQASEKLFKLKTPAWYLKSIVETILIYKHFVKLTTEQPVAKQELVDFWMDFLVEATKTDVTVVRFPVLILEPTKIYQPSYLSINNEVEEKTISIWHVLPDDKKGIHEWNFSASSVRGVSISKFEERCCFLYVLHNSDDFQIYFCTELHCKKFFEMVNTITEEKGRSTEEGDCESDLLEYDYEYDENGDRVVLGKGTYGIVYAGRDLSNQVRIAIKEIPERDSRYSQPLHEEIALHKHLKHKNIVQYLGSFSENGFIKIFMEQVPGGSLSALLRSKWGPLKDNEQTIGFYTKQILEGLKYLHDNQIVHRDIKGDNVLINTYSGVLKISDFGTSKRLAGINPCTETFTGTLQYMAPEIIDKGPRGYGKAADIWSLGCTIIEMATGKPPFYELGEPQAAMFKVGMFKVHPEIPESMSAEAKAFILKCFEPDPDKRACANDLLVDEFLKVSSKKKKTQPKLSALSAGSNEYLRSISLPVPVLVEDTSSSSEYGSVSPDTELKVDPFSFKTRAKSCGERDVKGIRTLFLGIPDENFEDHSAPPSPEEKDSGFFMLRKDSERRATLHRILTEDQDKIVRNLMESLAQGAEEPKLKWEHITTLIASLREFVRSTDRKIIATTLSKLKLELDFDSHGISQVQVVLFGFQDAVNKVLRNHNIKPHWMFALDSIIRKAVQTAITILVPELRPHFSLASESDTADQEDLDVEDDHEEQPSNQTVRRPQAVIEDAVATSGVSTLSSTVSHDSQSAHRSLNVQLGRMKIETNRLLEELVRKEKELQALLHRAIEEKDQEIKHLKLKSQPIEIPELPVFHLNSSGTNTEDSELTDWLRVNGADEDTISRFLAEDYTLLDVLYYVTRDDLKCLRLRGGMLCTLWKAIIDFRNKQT
Assay type: biochemical
Protocol: Reagents: Recombinant human ASK1 kinase was from Invitrogen Inc. HTRF KinEASE™-STK S3 kit was obtained from Cisbio (Bedford, Mass.). All other reagents were of the highest grade commercially available.
Assay: The assay measures the phosphorylation level of a biotinylatd peptide substrate by the ASK1 kinase using HTRF detection. ASK1 kinase assay is based on HTRF KinEASE™-STK manual from Cisbio. Test compound, 1 uM STK-substrate-biotin, 3 nM of ASK1 kinase are incubated with 1*Kinase buffer with 5 mM MgCl2 and 1 mM DTT. 250 nM Sa-XL 665(4*) and STK-antibody-Cryptate work solution are added to stop the reaction and phosphorylated peptide substrate is detected using Envision 2104 Multilabeled reader from PerkinElmer. The fluorescence is measured at 615 nm (Cryptate) and 665 nm (XL665) and a ratio of 665 nm/615 nm is calculated for each well. The resulting TR-FRET level (a ratio of 665 nm/615 nm) is proportional to the phosphorylation level of substrate.

Q: C[C@H](CO)n1cnnc1-c1cccc(-c2ncc(-c3c(F)cc(F)cc3F)o2)n1 [Compound I-053] was tested. Which EC50 did it give?
A: ≤ 50 nM

Q: Which EC50 does the source give for CC(C)n1cnnc1-c1cccc(-c2ncc(-c3ccc(N(C)C)cc3)o2)n1 [Compound I-057] here?
A: ≤ 50 nM

Q: How did the EC50 turn out when CC(C)n1cnnc1-c1cccc(-c2ncc(-c3cccc(N(C)C)c3)o2)n1 [Compound I-058] was run?
A: ≤ 50 nM

Q: With C[C@H](CO)n1cnnc1-c1cccc(-c2ncc(-c3cccc(N(C)C)c3)o2)n1 [Compound I-059] as the compound, how does the EC50 read?
A: ≤ 50 nM

Q: CNc1ccc(-c2cnc(-c3cccc(-c4nncn4C(C)C)n3)o2)cc1 [Compound I-060] was tested. Which EC50 did it give?
A: ≤ 50 nM

Q: Which EC50 does the source give for CNc1cccc(-c2cnc(-c3cccc(-c4nncn4C(C)C)n3)o2)c1 [Compound I-061] here?
A: ≤ 50 nM

Q: How did the EC50 turn out when CNc1cccc(-c2cnc(-c3cccc(-c4nncn4[C@H](C)CO)n3)o2)c1 [Compound I-062] was run?
A: ≤ 50 nM

Q: Which EC50 does the source give for CC(C)n1cnnc1-c1cccc(-c2ncc(-c3cccc(N)c3)o2)n1 [Compound I-063] here?
A: ≤ 50 nM

Q: C[C@H](CO)n1cnnc1-c1cccc(-c2ncc(-c3cccc(N)c3)o2)n1 [Compound I-064] was tested. Which EC50 did it give?
A: ≤ 50 nM

Q: CC(C)n1cnnc1-c1cccc(-c2ncc(-c3ccc(N)cc3)o2)n1 [Compound I-065] was tested. Which EC50 did it give?
A: ≤ 50 nM

Q: C[C@H](CO)n1cnnc1-c1cccc(-c2ncc(-c3ccc(N)cc3)o2)n1 [Compound I-066] was tested. Which EC50 did it give?
A: ≤ 50 nM

Q: CSc1ccc(-c2cnc(-c3cccc(-c4nncn4C(C)C)n3)o2)cc1 [Compound I-067] was tested. Which EC50 did it give?
A: ≤ 50 nM

Q: CSc1cccc(-c2cnc(-c3cccc(-c4nncn4C(C)C)n3)o2)c1 [Compound I-068] was tested. Which EC50 did it give?
A: ≤ 50 nM

Q: How did the EC50 turn out when COc1cccc(-c2cnc(-c3cccc(-c4nncn4C(C)C)n3)o2)c1 [Compound I-070] was run?
A: 50 to 500 nM

Q: For COc1ccc(-c2cnc(-c3cccc(-c4nncn4C(C)C)n3)o2)cc1 [Compound I-071], which EC50 is on record?
A: 50 to 500 nM

Q: How did the EC50 turn out when CC(C)n1cnnc1-c1cccc(-c2ncc(-c3ccccc3O)o2)n1 [Compound I-072] was run?
A: ≤ 50 nM

Q: Which EC50 does the source give for CC(C)n1cnnc1-c1cccc(-c2ncc(-c3cccc(O)c3)o2)n1 [Compound I-073] here?
A: ≤ 50 nM

Q: Which EC50 does the source give for C[C@H](CO)n1cnnc1-c1cccc(-c2ncc(-c3cccc(O)c3)o2)n1 [Compound I-074] here?
A: ≤ 50 nM

Q: For CC(C)Oc1cccc(-c2cnc(-c3cccc(-c4nncn4C(C)C)n3)o2)c1 [Compound I-076], which EC50 is on record?
A: ≤ 50 nM

Q: How did the EC50 turn out when CCCCCCOc1cccc(-c2cnc(-c3cccc(-c4nncn4[C@H](C)CO)n3)o2)c1 [Compound I-077] was run?
A: ≤ 50 nM

Q: How did the EC50 turn out when COCCOc1cccc(-c2cnc(-c3cccc(-c4nncn4C(C)C)n3)o2)c1 [Compound I-078] was run?
A: ≤ 50 nM

Q: Which EC50 does the source give for CC(C)n1cnnc1-c1cccc(-c2ncc(-c3cccc(OC[C@@H]4CNCCO4)c3)o2)n1 [Compound I-079] here?
A: ≤ 50 nM

Q: With CC(C)n1cnnc1-c1cccc(-c2ncc(-c3cccc(OC[C@@H]4CN(C)CCO4)c3)o2)n1 [Compound I-080] as the compound, how does the EC50 read?
A: ≤ 50 nM

Q: Which EC50 does the source give for CC(C)n1cnnc1-c1cccc(-c2ncc(-c3ccc(OC(F)(F)F)cc3)o2)n1 [Compound I-081] here?
A: 50 to 500 nM

Q: Which EC50 does the source give for CC(C)n1cnnc1-c1cccc(-c2ncc(-c3cccc(OC(F)(F)F)c3)o2)n1 [Compound I-082] here?
A: 50 to 500 nM

Q: For CC(C)n1cnnc1-c1cccc(-c2ncc(-c3cccc(OC(F)F)c3)o2)n1 [Compound I-083], which EC50 is on record?
A: 50 to 500 nM

Q: With CC(C)n1cnnc1-c1cccc(-c2ncc(-c3ccc(OC(F)F)cc3)o2)n1 [Compound I-084] as the compound, how does the EC50 read?
A: ≤ 50 nM

Q: How did the EC50 turn out when CC(C)n1cnnc1-c1cccc(-c2ncc(-c3ccccc3C(F)(F)F)o2)n1 [Compound I-085] was run?
A: 50 to 500 nM

Q: How did the EC50 turn out when CC(C)n1cnnc1-c1cccc(-c2ncc(-c3cccc(C(F)(F)F)c3)o2)n1 [Compound I-086] was run?
A: 50 to 500 nM

Q: CC(C)n1cnnc1-c1cccc(-c2ncc(-c3cccc(C(F)F)c3)o2)n1 [Compound I-087] was tested. Which EC50 did it give?
A: 50 to 500 nM

Q: CC(C)n1cnnc1-c1cccc(-c2ncc(-c3ccccc3C#N)o2)n1 [Compound I-089] was tested. Which EC50 did it give?
A: 50 to 500 nM

Q: CC(C)n1cnnc1-c1cccc(-c2ncc(-c3cccc(C#N)c3)o2)n1 [Compound I-090] was tested. Which EC50 did it give?
A: 50 to 500 nM

Q: Which EC50 does the source give for CC(C)n1cnnc1-c1cccc(-c2ncc(-c3ccc(C#N)cc3)o2)n1 [Compound I-091] here?
A: 50 to 500 nM

Q: COC(=O)c1cccc(-c2cnc(-c3cccc(-c4nncn4C(C)C)n3)o2)c1 [Compound I-092] was tested. Which EC50 did it give?
A: ≤ 50 nM

Q: How did the EC50 turn out when COC(=O)c1ccc(-c2cnc(-c3cccc(-c4nncn4C(C)C)n3)o2)cc1 [Compound I-093] was run?
A: 50 to 500 nM

Q: With CC(C)n1cnnc1-c1cccc(-c2ncc(-c3ccc(C(=O)O)cc3)o2)n1 [Compound I-094] as the compound, how does the EC50 read?
A: ≤ 50 nM

Q: CC(C)n1cnnc1-c1cccc(-c2ncc(-c3ccc(C(N)=O)cc3)o2)n1 [Compound I-095] was tested. Which EC50 did it give?
A: 50 to 500 nM

Q: Which EC50 does the source give for CSc1ccccc1-c1cnc(-c2cccc(-c3nncn3[C@H](C)CO)n2)o1 [Compound I-096] here?
A: ≤ 50 nM

Q: Which EC50 does the source give for C[C@H](CO)n1cnnc1-c1cccc(-c2ncc(-c3cccc(S(C)(=O)=O)c3)o2)n1 [Compound I-097] here?
A: ≤ 50 nM

Q: For C[C@H](CO)n1cnnc1-c1cccc(-c2ncc(-c3ccc(S(C)(=O)=O)cc3)o2)n1 [Compound I-098], which EC50 is on record?
A: ≤ 50 nM

Q: For C[C@H](CO)n1cnnc1-c1cccc(-c2ncc(-c3cccc(S(N)(=O)=O)c3)o2)n1 [Compound I-099], which EC50 is on record?
A: ≤ 50 nM

Q: Which EC50 does the source give for C[C@H](CO)n1cnnc1-c1cccc(-c2ncc(-c3ccc(S(N)(=O)=O)cc3)o2)n1 [Compound I-100] here?
A: ≤ 50 nM

Q: Which EC50 does the source give for CC(C)n1cnnc1-c1cccc(-c2ncc(-c3ccc4ccccc4c3)o2)n1 [Compound I-101] here?
A: 50 to 500 nM

Q: Which EC50 does the source give for CC(C)n1cnnc1-c1cccc(-c2ncc(-c3ccc4c(c3)OCCO4)o2)n1 [Compound I-102] here?
A: ≤ 50 nM

Q: How did the EC50 turn out when CC(C)n1cnnc1-c1cccc(-c2ncc(-c3ccc4c(c3)CCCC4)o2)n1 [Compound I-103] was run?
A: 50 to 500 nM

Q: How did the EC50 turn out when CC(C)n1cnnc1-c1cccc(-c2ncc(-c3cccc(-c4ccccc4)c3)o2)n1 [Compound I-104] was run?
A: 50 to 500 nM

Q: Which EC50 does the source give for CC(C)n1cnnc1-c1cccc(-c2ncc(-c3ccc(-c4ccccc4)cc3)o2)n1 [Compound I-105] here?
A: 50 to 500 nM

Q: For CC(C)n1cnnc1-c1cccc(-c2ncc(-c3cccc(-c4ccccn4)c3)o2)n1 [Compound I-106], which EC50 is on record?
A: 50 to 500 nM

Q: How did the EC50 turn out when CC(C)n1cnnc1-c1cccc(-c2ncc(-c3cccc(-c4cccnc4)c3)o2)n1 [Compound I-107] was run?
A: ≤ 50 nM

Q: Which EC50 does the source give for CC(C)n1cnnc1-c1cccc(-c2ncc(-c3cccc(-c4ccncc4)c3)o2)n1 [Compound I-108] here?
A: ≤ 50 nM

Q: CC(C)n1cnnc1-c1cccc(-c2ncc(-c3cccc(C4CCOCC4)c3)o2)n1 [Compound I-109] was tested. Which EC50 did it give?
A: ≤ 50 nM

Q: CC(C)n1cnnc1-c1cccc(-c2ncc(-c3cccc(N4CCOCC4)c3)o2)n1 [Compound I-110] was tested. Which EC50 did it give?
A: ≤ 50 nM

Q: For C[C@H](CO)n1cnnc1-c1cccc(-c2ncc(-c3cccc(N4CCOCC4)c3)o2)n1 [Compound I-111], which EC50 is on record?
A: ≤ 50 nM

Q: How did the EC50 turn out when CC(C)n1cnnc1-c1cccc(-c2ncc(-c3ccc(N4CCOCC4)cc3F)o2)n1 [Compound I-112] was run?
A: 500 to 5000 nM

Q: For CC(C)n1cnnc1-c1cccc(-c2ncc(-c3cccc(N4CCNCC4)c3)o2)n1 [Compound I-113], which EC50 is on record?
A: ≤ 50 nM

Q: Which EC50 does the source give for C[C@H](CO)n1cnnc1-c1cccc(-c2ncc(-c3cccc(N4CCNCC4)c3)o2)n1 [Compound I-114] here?
A: ≤ 50 nM

Q: CC(C)n1cnnc1-c1cccc(-c2ncc(-c3cccc(N4CCN(C)CC4)c3)o2)n1 [Compound I-115] was tested. Which EC50 did it give?
A: ≤ 50 nM

Q: Which EC50 does the source give for C[C@H](CO)n1cnnc1-c1cccc(-c2ncc(-c3cccc(N4CCN(C)CC4)c3)o2)n1 [Compound I-116] here?
A: ≤ 50 nM
